Columns and labels:
Test in all cases: relative viability (nuclei count vs DMSO), 5 days (fraction); higher = more cells survive
Bortezomib + Foretinib = compound: CC(C)C[C@H](NC(=O)[C@H](Cc1ccccc1)NC(=O)c1cnccn1)B(O)O [Bortezomib] + COc1cc2c(Oc3ccc(NC(=O)C4(C(=O)Nc5ccc(F)cc5)CC4)cc3F)ccnc2cc1OCCCN1CCOCC1 [Foretinib] (partner 0.25 µM)
Method in brief: (§1)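 The day after seeding in 1536-well plates, lung cancer cell lines were treated by pin tool with a single drug, or with a fixed anchor-drug dose together with five library-drug doses (not always all listed) in √10 steps. After 5 days, a combined fix-and-stain solution (final 0.05% Triton X-100, 1% formaldehyde, 1 ug/ml Hoechst) was added. Nuclei counted on 4× images gave relative viability as treated counts over vehicle counts, reported as the median of duplicate plates.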

Obatoclax + Trametinib = compound: COC1=CC(c2cc3ccccc3[nH]2)=N/C1=C\c1[nH]c(C)cc1C [Obatoclax] + CC(=O)Nc1cccc(-n2c(=O)n(C3CC3)c(=O)c3c(Nc4ccc(I)cc4F)n(C)c(=O)c(C)c32)c1 [Trametinib] (partner 0.02 µM)
Method in brief: as §1

[1] = compound: CC1=CC(=NN1)NC2=CC(=NC(=N2)/C=C/C3=CC=CC=C3)N4CCN(CC4)C + CC(=O)Nc1cccc(-n2c(=O)n(C3CC3)c(=O)c3c(Nc4ccc(I)cc4F)n(C)c(=O)c(C)c32)c1 [Trametinib] (partner 0.02 µM)
Method in brief: as §1

| Cell Line | relative viability (Bortezomib + Foretinib; first compound 0.0002 µM) | relative viability (Bortezomib + Foretinib; first compound 0.000632 µM) | relative viability (Bortezomib + Foretinib; first compound 0.002 µM) | relative viability (Bortezomib + Foretinib; first compound 0.006325 µM) | relative viability (Bortezomib + Foretinib; first compound 0.02 µM) | relative viability (Obatoclax + Trametinib; first compound 0.01 µM) | relative viability (Obatoclax + Trametinib; first compound 0.03162 µM) | relative viability (Obatoclax + Trametinib; first compound 0.1 µM) | relative viability (Obatoclax + Trametinib; first compound 0.3162 µM) | relative viability (Obatoclax + Trametinib; first compound 1 µM) | relative viability ([1]; first compound 0.08 µM) | relative viability ([1]; first compound 0.253 µM) | relative viability ([1]; first compound 0.8 µM) | relative viability ([1]; first compound 2.53 µM) | relative viability ([1]; first compound 8 µM) |
| --- | --- | --- | --- | --- | --- | --- | --- | --- | --- | --- | --- | --- | --- | --- | --- |
| NCI-H2023 | 0.911 | 0.802 | 1.06 | 0.282 | 0.0757 | 0.59 | 0.575 | 0.595 | 0.362 | 0.226 | 0.522 | 0.649 | 0.449 | 0.0864 | 0.0663 |
| EBC-1 | 0.11 | 0.106 | 0.0957 | 0.0676 | 0.0605 |  |  |  |  |  |  |  |  |  |  |
| NCI-H1666 | 0.868 | 0.945 | 0.884 | 0.289 | 0.316 | 0.753 | 0.849 | 0.949 | 0.805 | 0.637 | 0.834 | 0.761 | 0.875 | 0.854 | 0.563 |
| NCI-H1975 | 0.927 | 0.926 | 0.132 | 0.104 | 0.107 | 0.407 | 0.32 | 0.213 | 0.352 | 0.206 | 0.343 | 0.333 | 0.4 | 0.254 | 0.105 |
| NCI-H1793 | 0.611 | 0.617 | 0.666 | 0.512 | 0.155 | 0.341 | 0.458 | 0.445 | 0.447 | 0.42 | 0.405 | 0.402 | 0.356 | 0.167 | 0.119 |
| NCI-H1355 | 0.944 | 0.983 | 0.998 | 0.155 | 0.14 | 0.403 | 0.462 | 0.439 | 0.35 | 0.454 | 0.457 | 0.435 | 0.415 | 0.334 | 0.151 |
| SW 900 | 0.87 | 0.743 | 0.155 | 0.119 | 0.126 | 1.06 | 0.762 | 0.931 | 0.62 | 0.547 | 0.957 | 0.625 | 0.839 | 0.215 | 0.0981 |
| A549 | 0.87 | 1.01 | 0.986 | 0.0286 | 0.0217 |  |  |  |  |  |  |  |  |  |  |
| NCI-H2170 | 1.02 | 0.952 | 1.03 | 0.596 | 0.167 | 0.877 | 0.942 | 0.904 | 0.856 | 0.861 | 0.932 | 0.916 | 0.91 | 0.671 | 0.355 |
| EKVX | 0.847 | 0.843 | 0.897 | 0.872 | 0.21 | 0.321 |  | 0.464 | 0.307 | 0.292 | 0.387 | 0.368 | 0.394 | 0.352 | 0.137 |
| RERF-LC-KJ | 0.944 | 0.886 | 0.929 | 0.761 | 0.221 | 0.888 | 0.834 | 0.835 | 0.869 | 0.769 | 0.905 | 0.956 | 0.928 | 0.605 | 0.295 |
| NCI-H1755 | 0.939 | 0.972 | 0.868 | 0.494 | 0.192 | 0.673 | 0.769 | 0.77 | 0.752 | 0.799 | 0.78 | 0.728 | 0.716 | 0.66 | 0.389 |
| NCI-H661 | 1.04 | 1.03 | 1.01 | 0.559 | 0.219 | 0.585 | 0.553 | 0.593 | 0.493 | 0.473 | 0.593 | 0.478 | 0.628 | 0.256 | 0.242 |
| LOU-NH91 | 0.863 | 0.867 | 0.328 | 0.258 | 0.243 | 0.766 | 0.784 | 0.717 | 0.723 | 0.592 | 0.767 | 0.823 | 0.754 | 0.783 | 0.439 |
| LXF-289 | 0.98 | 0.964 | 0.991 | 0.127 | 0.0671 | 0.642 | 0.663 | 0.671 | 0.707 | 0.671 | 0.637 | 0.623 | 0.637 | 0.592 | 0.442 |
| HCC-44 |  |  |  |  |  | 1.09 | 1.02 | 0.989 | 1.1 | 0.994 | 1.04 | 1.06 | 1.04 | 1.09 | 0.677 |
| HARA | 0.851 | 0.866 | 0.928 | 0.0716 | 0.0683 | 0.658 | 0.926 | 0.83 | 0.768 | 0.705 | 0.824 | 0.448 | 0.65 | 0.148 | 0.0692 |
| 201T | 1.05 | 1.11 | 0.793 | 0.297 | 0.172 | 0.713 | 0.737 | 0.776 | 0.722 | 0.752 | 0.713 | 0.741 | 0.674 | 0.664 | 0.649 |
| LC-2-ad | 0.913 | 0.899 | 0.814 | 0.244 | 0.203 | 0.954 | 0.859 | 0.885 | 0.905 | 0.969 | 0.873 | 0.89 | 0.868 | 0.463 | 0.196 |
| NCI-H596 | 0.88 | 0.892 | 0.613 | 0.17 | 0.138 | 0.814 | 0.784 | 0.692 | 0.652 | 0.565 | 0.846 | 1.07 | 0.839 | 0.4 | 0.216 |
| NCI-H1437 | 1.31 | 1.24 | 1.32 | 0.185 | 0.149 | 0.512 | 0.471 | 0.642 | 0.498 | 0.359 | 0.532 | 0.621 | 0.577 | 0.272 | 0.223 |
| NCI-H727 | 0.809 | 0.694 | 0.93 | 0.603 | 0.169 | 0.41 | 0.393 | 0.414 | 0.404 | 0.391 | 0.355 | 0.347 | 0.429 | 0.347 | 0.285 |
| PC-3 [JPC-3] | 1.04 | 1.05 | 0.346 | 0.163 | 0.121 | 0.643 | 0.71 | 0.621 | 0.667 | 0.47 | 0.726 | 0.744 | 0.701 | 0.706 | 0.417 |

Source: the supplement of paper PMC10307832
